According to ChEMBL document CHEMBL1671653, “GT-1a or GT-1b subtype-specific resistance profiles for hepatitis C virus inhibitors telaprevir and HCV-796” (Antimicrob Agents Chemother, 2009):
Values belong to the molecule of their own block, whether it stands above or below them.

Tests used:
Type in all cases: functional, organism-based, Hepacivirus hominis
Hepatitis C virus [1] = experiment: Antiviral activity against Hepatitis C virus GT-1b assessed as inhibition of HCV replicon-encoded Renilla luciferase reporter activity after 3 days; conditions: 72 h
Hepatitis C virus [2] = experiment: Antiviral activity against Hepatitis C virus GT-1a assessed as inhibition of HCV replicon-encoded Renilla luciferase reporter activity after 3 days; conditions: 72 h
Hepatitis C virus [3] = experiment: Antiviral activity against Hepatitis C virus GT-1b harboring NS5B polymerase C316Y mutant gene relative to wild type
Hepatitis C virus [4] = experiment: Antiviral activity against Hepatitis C virus GT-1a harboring NS5B polymerase L392F mutant gene
Hepatitis C virus [5] = experiment: Antiviral activity against Hepatitis C virus GT-1a harboring NS5B polymerase M414T mutant gene
Hepatitis C virus [6] = experiment: Antiviral activity against Hepatitis C virus GT-1a harboring NS5B polymerase C316Y mutant gene
Hepatitis C virus [7] = experiment: Antiviral activity against Hepatitis C virus GT-1a harboring NS5B polymerase C316Y/L392F mutant gene
Hepatitis C virus [8] = experiment: Antiviral activity against Hepatitis C virus GT-1a harboring NS5B polymerase C316Y/M414T mutant gene
Hepatitis C virus [9] = experiment: Antiviral activity against Hepatitis C virus GT-1a harboring NS5B polymerase L392F/M414T mutant gene
Hepatitis C virus [10] = experiment: Antiviral activity against Hepatitis C virus GT-1b harboring wild type NS5B polymerase
Hepatitis C virus [11] = experiment: Antiviral activity against Hepatitis C virus GT-1a harboring wild type NS5B polymerase

EC50 (Hepatitis C virus [1]): 560 nM
EC50 (Hepatitis C virus [2]): 500 nM
Structure (SMILES): CCC[C@H](NC(=O)[C@@H]1[C@H]2CCC[C@H]2CN1C(=O)[C@@H](NC(=O)[C@@H](NC(=O)c1cnccn1)C1CCCCC1)C(C)(C)C)C(=O)C(=O)NC1CC1 [TELAPREVIR]

Structure (SMILES): CNC(=O)c1c(-c2ccc(F)cc2)oc2cc(N(CCO)S(C)(=O)=O)c(C3CC3)cc12 [NESBUVIR]
EC50 (Hepatitis C virus [1]): 17 nM
EC50 (Hepatitis C virus [3]): 6 nM
EC50 (Hepatitis C virus [4]): 8 nM
EC50 (Hepatitis C virus [5]): 7 nM
EC50 (Hepatitis C virus [6]): 1700 nM
EC50 (Hepatitis C virus [7]): 3200 nM
EC50 (Hepatitis C virus [8]): 2800 nM
EC50 (Hepatitis C virus [9]): 22 nM
EC50 (Hepatitis C virus [10]): 6 nM
EC50 (Hepatitis C virus [11]): 4 nM
